This is an account of results in patent publication US20230165869A1, “DIAZINE AND TRIAZINE COMPOUNDS TO TREAT CYTOKINE STORM SYNDROME” (UNIVERSITY OF GREENWICH, priority 2020, published 2023).

Read-outs that look alike come from different tables or passages of the source.

The test system of one data set is Interferon-gamma. Briefly: Interferon-gamma secretion from PMA/ionomycin-stimulated PBMCs. The class given is cell-based. As to conditions: stimulated human PBMCs, result in words. As to the method: (§1) The compounds of Formula (I) may be investigated for inhibition of pro-inflammatory cytokines Interleukin (IL)-[…], 6,8 and 17A, Interferon (IFN)-gamma and Tumour necrosis factor (TNF)-α in peripheral blood mononuclear cells (PBMCs) isolated from fresh human buffy coats by centrifugation on Lymphoprep™ (Stemcell Technologies). All human cells are grown in cell culture medium RPMI-1640 supplemented with 1% penicillin/streptomycin and 5% heat inactivated fetal bovine serum.
(§2) PBMCs stimulated with PMA/ionomycin are incubated for 24 hours containing the compounds under investigation, reconstituted in DMSO. The secreted levels of Interferon-gamma and Tumour necrosis factor-α are measured in the cell culture supernatant using a Human Quantikine ELISA Kit and the cell viability is quantified using Trypan blue.

In a further data set the test system is Tumour necrosis factor-α. The data set can be described thus: Tumour necrosis factor-α secretion from PMA/ionomycin-stimulated PBMCs. The class given is cell-based. Conditions: stimulated human PBMCs, result in words. On the procedure:
as §1, §2

The next data set relates to Interleukin-6. The data set can be described thus: Interleukin-6 secretion from LPS-stimulated PBMCs. The class given is cell-based. As to conditions: stimulated human PBMCs, result in words. On the procedure:
as §1
(§3) PBMCs stimulated with LPS (Salmonella enterica serotype typhimurium) are incubated for 24 hours containing the compounds under investigation, reconstituted in dimethyl sulfoxide (DMSO). The secreted levels of Interleukin-1β and Interleukin-6 are measured in the cell culture supernatant using a cytometric bead array and the cell viability is quantified using Trypan blue.

Another data set relates to PBMC. Briefly: PBMC viability in the IL-17A human PBMC model. The class given is cell-based. As to conditions: Homo sapiens, PBMC. On the procedure: (§4) PBMCs stimulated with PMA/ionomycin are incubated for 24 hours containing the compounds under investigation, reconstituted in DMSO. The secreted levels of Interleukin-17A are measured in the cell culture supernatant using a cytometric bead array and the cell viability is quantified using Trypan blue.
(§5) 3,5-Diamino-6-(diphenylmethyl)-1,2,4-triazine was also investigated for […] inhibition in a human PBMC model: […]

Data set [1] can be described thus: PBMC viability in the IL-17A human PBMC model. The class given is cell-based. As to conditions: PBMCs stimulated with PMA/ionomycin; human PBMC model, maximum effect; read-out: Inhibition of PMBC viability, Max effect. As to the method: as §4, §5
Another data set has as its system Interleukin-17A. Briefly: Interleukin-17A secretion from PMA/ionomycin-stimulated PBMCs. The class given is cell-based, human. As to conditions: for inhibition of IL-17 / IL-17A: stimulated human PBMCs, result in words. On the procedure:
as §1, §4, §5

The subject of a further data set is Interleukin-1β. Briefly: Interleukin-1β secretion from LPS-stimulated PBMCs. The class given is cell-based. As to conditions: stimulated human PBMCs, result in words. As to the method: as §1, §3
Another data set has as its system T cell. Briefly: T cell proliferation in the IL-2/IL-4 inhibition assays. The class given is cell-based, human. As to the method: (§6) The compounds may be investigated for inhibition of pro-inflammatory cytokines Interleukin-2, 4 and 13 in human CD4-positive T cells isolated from fresh isolated PBMCS using a CD4-positive T cell isolation kit.
(§7) CD4-positive T cells stimulated with beads coated with antibodies against CD2, CD3 and CD28 are incubated for 48 hours containing the compounds under investigation, reconstituted in DMSO. The secreted levels of Interleukin-2, 4 and 13 are measured in the cell culture supernatant using a cytometric bead array and the cell viability is measured using an MTT (3-(4,5-dimethylthiazol-2-yl)-2,5-diphenyltetrazolium bromide) assay.
(§8) Secreted IL-4 levels may be measured using electrochemiluminescence (MSD kits, Meso Scale Discovery), while secreted IL-2 levels may be measured using proximity homogenous time-resolved fluorescence (HTRF) and the amount of living cells may be measured by addition of resazurin (PrestoBlue®).

The test system of a further data set is IL-2. The data set can be described thus: IL-2 release from stimulated CD4-positive T cells. The class given is cell-based, human. On the procedure: as §6, §7, §8
The next data set has as its system IL-4. The data set can be described thus: IL-4 release from stimulated CD4-positive T cells. The class given is cell-based, human. On the procedure:
as §6, §7, §8

In another data set the test system is Interleukin-8. Briefly: Interleukin-8 secretion from PBMCs stimulated with TNF-α and IL-17A. The class given is cell-based. Conditions: stimulated human PBMCs, result in words. As to the method: as §1
PBMCs stimulated with a mixture between TNF-α and IL-17A are incubated for 24 hours whilst containing the compounds under investigation, reconstituted in DMSO. The secreted levels of Interleukin-8 are measured in the cell culture supernatant using a cytometric bead array and the cell viability is quantified using Trypan blue.

For `Nc1nnc(C(c2ccccc2)c2ccccc2)c(N)n1` [Compound 2, 3,5-Diamino-6-(diphenylmethyl)-1,2,4-triazine], the “inhibition of IFN-γ” value in the data set on Interferon-gamma is listed as “high inhibition”. Besides, in the data set on Tumour necrosis factor-α (at the top concentration), the “inhibition of TNF-α” value was “high inhibition”. For the same molecule, the “inhibition of IL-6” value with Interleukin-6 is reported as “moderate inhibition”. Besides, the EC50 in the data set with PBMC (read-out: Inhibition of PMBC viability, Abs EC50) was greater than 10000 nM; in the data set with PBMC (read-out: Inhibition of PMBC viability, Rel EC50), 44000 nM; with Interleukin-17A (human PBMC model, absolute EC50, read-out: Inhibition of IL-17A release, Abs EC50) it was 317 nM; in the data set on Interleukin-17A (human PBMC model, relative EC50, read-out: Inhibition of IL-17A release, Rel EC50), 261 nM; in the data set with T cell (Homo sapiens, T-cell, absolute EC50, read-out: Inhibition of T cell proliferation, Abs EC50), greater than 10000 nM; in the data set on T cell (Homo sapiens, T-cell, relative EC50, read-out: Inhibition of T cell proliferation, Rel EC50) it was greater than 10000 nM. Besides, the EC50 in the data set on IL-2 (Homo sapiens, CD4 positive, absolute EC50, read-out: Inhibition of IL-2 release, Abs EC50) is 15 nM; with IL-2 (Homo sapiens, CD4 positive, relative EC50, read-out: Inhibition of IL-2 release, Rel EC50), 28 nM; with IL-4 (Homo sapiens, CD4 positive, absolute EC50, read-out: Inhibition of IL-4 release, Abs EC50), 61.3 nM; in the data set on IL-4 (Homo sapiens, CD4 positive, relative EC50, read-out: Inhibition of IL-4 release, Rel EC50), 50.5 nM; in the data set on IL-4 (relative EC50, read-out: Inhibition of IL-4 release, Rel EC50) it was 58.4 nM. The cytotoxicity at 24 h in [1] was found to be 38%. For the same molecule, the Emax with Interleukin-17A (human PBMC model, maximum effect, read-out: Inhibition of IL-17A release, Max effect) was 86%; in the data set on T cell (Homo sapiens, T-cell, maximum effect, read-out: Inhibition of T cell proliferation, Max Effect), 28%; in the data set with IL-2 (Homo sapiens, CD4 positive, maximum effect, read-out: Inhibition of IL-2 release, Max Effect), 97%; with IL-4 (Homo sapiens, CD4 positive, maximum effect, read-out: Inhibition of IL-4 release, Max Effect), 99%. Moreover, the “inhibition of IL-17 / IL-17A” value in the data set with Interleukin-17A is on record as “high inhibition”. For the same molecule, the “inhibition of IL-1β” value in the data set with Interleukin-1β is “moderate inhibition”. Moreover, the “inhibition of T cell proliferation” value in the data set with T cell (result in words) is given as “without significant inhibition”. Also, the “inhibition of IL-2” value with IL-2 (result in words) is recorded as “good level of inhibition”. Further, the “inhibition of IL-4” value in the data set with IL-4 (result in words) was “good level of inhibition”. The “inhibition of IL-8” value in the data set on Interleukin-8 is reported as “high inhibition”.
On to `Nc1nnc(-c2sc(Cl)c(Cl)c2Cl)c(N)n1` [Compound 1, 3,5-diamino-6-[2-(3,4,5-trichlorothienyl)]-1,2,4-triazine], for which the “inhibition of IFN-γ” value with Interferon-gamma is “high inhibition”. Further, the “inhibition of TNF-α” value with Tumour necrosis factor-α is reported as “high inhibition”. In addition, the “inhibition of IL-6” value in the data set on Interleukin-6 was “high inhibition”. Besides, the “inhibition of IL-17 / IL-17A” value with Interleukin-17A is recorded as “moderate inhibition”. The “inhibition of IL-1β” value in the data set on Interleukin-1β is recorded as “high inhibition”. Moreover, the “inhibition of IL-8” value with Interleukin-8 is “high inhibition”.
